Experimental data published in US20130202629A1, “USES OF PHOSPHOLIPID CONJUGATES OF SYNTHETIC TLR7 AGONISTS” (The Regents of the University of California, priority 2010, published 2013).
Where “and” joins values, the source holds several entries; their conditions need not be identical. Identical values can stand only once. Entries after “also recorded” stand apart in the source; their conditions may differ.

Columns and labels:
TLR7 [1] = target: T1, TLR7 (Mus musculus, UniProt P58681); test: In vitro cytokine induction (TNF-alpha, IL-6, IL-12; ELISA) in murine macrophages: RAW264.7 cells and BMDM; format: cell-based; conditions: RAW264.7 and BMDM, 18 hours; b281 also in vivo
T1 construct: BMDM were prepared from C57BL/6 and TLR7 deficient mice; endogenous in cells; host or cells: RAW264.7 (ATCC); bone marrow derived macrophages from C57BL/6 mice
T1 sequence (P58681 27-1050): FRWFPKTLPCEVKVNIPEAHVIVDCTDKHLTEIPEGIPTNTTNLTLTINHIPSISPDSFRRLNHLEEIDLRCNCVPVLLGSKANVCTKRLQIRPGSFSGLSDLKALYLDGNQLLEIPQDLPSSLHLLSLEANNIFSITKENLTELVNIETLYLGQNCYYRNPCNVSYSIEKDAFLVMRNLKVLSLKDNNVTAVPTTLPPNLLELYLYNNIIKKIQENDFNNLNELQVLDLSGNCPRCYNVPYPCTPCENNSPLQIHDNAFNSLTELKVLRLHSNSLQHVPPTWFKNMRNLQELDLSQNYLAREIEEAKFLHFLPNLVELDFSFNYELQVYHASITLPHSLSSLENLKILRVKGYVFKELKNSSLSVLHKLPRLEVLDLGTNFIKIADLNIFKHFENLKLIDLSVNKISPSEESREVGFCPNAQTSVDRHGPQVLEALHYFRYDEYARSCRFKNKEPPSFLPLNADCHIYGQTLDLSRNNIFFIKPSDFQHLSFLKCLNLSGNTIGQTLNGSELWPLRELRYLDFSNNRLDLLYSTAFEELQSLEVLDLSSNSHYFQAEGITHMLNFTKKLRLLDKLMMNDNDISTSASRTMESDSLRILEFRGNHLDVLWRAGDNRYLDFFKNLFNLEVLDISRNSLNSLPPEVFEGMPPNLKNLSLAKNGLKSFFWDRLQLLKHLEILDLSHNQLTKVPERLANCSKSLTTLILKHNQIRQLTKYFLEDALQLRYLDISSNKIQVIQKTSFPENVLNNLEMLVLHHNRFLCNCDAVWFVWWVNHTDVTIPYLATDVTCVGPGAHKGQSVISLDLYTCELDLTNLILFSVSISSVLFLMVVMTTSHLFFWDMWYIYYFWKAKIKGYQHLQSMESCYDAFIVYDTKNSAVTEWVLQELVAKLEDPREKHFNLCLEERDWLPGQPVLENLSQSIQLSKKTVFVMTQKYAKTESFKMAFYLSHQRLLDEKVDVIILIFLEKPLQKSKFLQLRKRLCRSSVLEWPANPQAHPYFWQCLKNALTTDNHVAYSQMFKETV
Protocol: In vitro measurements of cytokine induction were performed using the mouse leukemic monocyte macrophage cell line, RAW264.7. […] BMDM were prepared from C57BL/6 and TLR7 deficient mice as described in Wu, C. C et al., “Immunotherapeutic activity of a conjugate of a Toll-like receptor 7 ligand”, Proc. Natl. Acad. Sci. USA, 104:3990 (2007).
In general, RAW264.7 cells or BMDM were incubated with various concentrations of conjugates for 18 hours at 37° C., 5% CO2 and culture supernatants were collected. The levels of cytokines (IL-6, IL-12 or TNF-α in the supernatants were determined by ELISA (BD Biosciences Pharmingen, La Jolla, Calif.) (Cho, H. J et al., “Immunostimulatory DNA-based vaccines induce cytotoxic lymphocyte activity by a T-helper cell-independent mechanism” [see comments], Nat. Biotechnol., 18:509 (2000)), and the results presented in FIGS. 2A-D. Data are mean±SEM of triplicates and are representative of three independent experiments. Minimum detection levels of these cytokines were 15 pg/mL.
TNFα levels were measured (see FIG. 2A) by incubating approximately 1×10^6/mL RAW 264.7 cells with the various conjugates or controls, as described above. IL-6 and IL-12 levels were measured (see FIGS. 2B-D) by incubating 0.5×10^6/mL BMDM with the various conjugates or controls, as described above. […]

TLR7 [2] = test: IL-12 and IL-6 induction in BMDM from wild type and TLR7 deficient mice; format: cell-based, mouse; conditions: BMDM from TLR7 deficient (TLR7-KO) mice
TLR7 [3] = target: T2, TLR7 (Homo sapiens, UniProt Q9NYK1); test: Cytokine induction (IL-6, IFNalpha1; Luminex) in human PBMC; format: cell-based; conditions: 18 hours, IL-6 (FIG. 3A)
T2 sequence (Q9NYK1 27-1049): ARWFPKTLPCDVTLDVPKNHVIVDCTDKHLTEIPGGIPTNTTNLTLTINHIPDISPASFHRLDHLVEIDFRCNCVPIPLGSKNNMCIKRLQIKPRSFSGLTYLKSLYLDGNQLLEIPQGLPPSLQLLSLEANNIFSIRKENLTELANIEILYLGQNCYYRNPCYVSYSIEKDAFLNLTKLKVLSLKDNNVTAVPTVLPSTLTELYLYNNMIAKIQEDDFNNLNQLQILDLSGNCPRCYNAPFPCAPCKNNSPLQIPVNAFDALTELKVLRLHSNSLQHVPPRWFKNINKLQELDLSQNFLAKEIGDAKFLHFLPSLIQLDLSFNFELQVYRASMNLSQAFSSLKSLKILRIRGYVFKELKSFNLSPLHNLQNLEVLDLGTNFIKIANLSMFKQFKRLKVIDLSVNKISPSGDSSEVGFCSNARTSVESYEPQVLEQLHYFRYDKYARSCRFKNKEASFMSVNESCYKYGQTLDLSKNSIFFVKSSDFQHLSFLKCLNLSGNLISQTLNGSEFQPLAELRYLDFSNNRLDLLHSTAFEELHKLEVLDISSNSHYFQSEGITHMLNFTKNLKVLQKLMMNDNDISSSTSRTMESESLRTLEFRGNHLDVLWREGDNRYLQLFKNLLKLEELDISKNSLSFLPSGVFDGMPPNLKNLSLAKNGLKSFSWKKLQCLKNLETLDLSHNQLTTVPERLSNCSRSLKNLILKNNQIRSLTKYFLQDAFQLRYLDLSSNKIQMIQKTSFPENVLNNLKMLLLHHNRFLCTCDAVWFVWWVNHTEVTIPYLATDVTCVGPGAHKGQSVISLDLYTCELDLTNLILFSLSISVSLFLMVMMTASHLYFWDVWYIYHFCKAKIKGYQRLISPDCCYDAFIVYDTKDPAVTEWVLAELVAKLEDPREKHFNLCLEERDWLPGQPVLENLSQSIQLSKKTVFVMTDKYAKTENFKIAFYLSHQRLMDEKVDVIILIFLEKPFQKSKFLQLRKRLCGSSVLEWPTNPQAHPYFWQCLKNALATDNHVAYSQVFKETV

C57BL/6 mice = test: In vivo kinetics of serum pro-inflammatory cytokine induction after intravenous injection; design: species or system mouse; conditions: i.v., 200 nmol per animal
Protocol: The mice were intravenously injected with TLR7 agonists and their conjugates (40 nmol compound (4a) or 200 nmol SM and compounds (6), (8), or (9) per mouse). Blood samples were collected 2, 4, 6, 24 or 48 hours after injections. Sera were separated and kept at −20° C. until use. The levels of cytokines (e.g. IL-6 and TNF-α in the sera were measured by Luminex bead microassay, and the results presented in FIGS. 4A-B. Data are mean±SEM of five mice and are representative of two independent experiments. The minimum detection levels of IL-6 and TNF-α are 5 pg/mL and 10 pg/mL, respectively.
Cytokine induction by compounds (4a), (6), and (9), were sustained for up to 6 hours.

Solubility = format: physicochemical; conditions: aqueous solution / suitable solvents for testing
mice = conditions: cited from earlier work

| Compound | potency of cytokine induction compared to unconjugated TLR7 (SM), in words (TLR7 [1]) | IL-12 and IL-6 induction in TLR7 deficient BMDM (TLR7 [2]) | order of TLR7 conjugate potency (TLR7 [3]) | serum IL-6 induction (C57BL/6 mice) | serum TNFα induction (C57BL/6 mice; any point post injection) | solubility, in words (Solubility) | course of serum cytokine levels after injection, in words (C57BL/6 mice) | anorexic effects and hypothermia in mice (mice; mouse, in vivo) | minimum dose that induced the anorectic reaction (mice; mucosal administration) [nmoles per mice] |
| --- | --- | --- | --- | --- | --- | --- | --- | --- | --- |
| COCCOc1nc(N)c2nc(O)n(Cc3ccc(C(=O)NCCOCCOCCOCCOCCOCCOCCOCCOCCOCCOCCn4cc(CCC(=O)O)nn4)cc3)c2n1 [Compound 8, 3-(1-(1-(4-((6-amino-8-hydroxy-2-(2-methoxyethoxy)-9H-purin-9-yl)methyl)phenyl)-1-oxo-5,8,11,14,17,20,23,26,29,32-decaoxa-2-azatetratriacontan-34-yl)-1H-1,2,3-triazol-4-yl)propanoic acid] | less potency compared to the unconjugated TLR7 (SM); also recorded: attenuated | little or no IL-12 and IL-6 | (4b)>(6)>(9)>/=SM>(8) and 4b>6>9>SM=8 | only a low level of IL-6 | no significant induction of TNFα | solubility improves dramatically |  |  |  |
| COCCOc1nc(N)c2nc(O)n(Cc3ccccc3)c2n1 [SM, 9-benzyl-8-hydroxy-2-(2-methoxyethoxy) adenine, reference compound] |  | little or no IL-12 and IL-6 |  |  |  | insoluble in aqueous solution | declined rapidly after 2 hours | can induce anorexic effects and hypothermia | 50 |
